The values that follow come from patent US20140296216A1, “PYRIMIDO[4,5-D]PYRIMIDINYL COMPOUNDS, PHARMACEUTICAL COMPOSITIONS AND USES THEREOF” (GUANGZHOU INSTITUTE OF BIOMEDICINE AND HEALTH, CHINESE …, priority 2011, published 2014).

The subject of test [1] is H1975 (lung cancer cells, EGFR L858R&T790M). In words: Cell proliferation by MTT, H1975. It is filed as cell-based. Particulars: Homo sapiens, NCI-H1975, read-out: H1975 50% inhibitory concentration (IC50), 72 h.
The test system of test [2] is H1975 cell. In words: Effect on cell apoptosis by Annexin V. In kind it is cell-based. Conditions: PE-Annexin V, 24, 48 h; FIG. 29. The procedure: Detecting the effect of the compounds on cell apoptosis by Annexin V: 8×10^5 cells/well, NCI-H820, A431, HCC827, EGFR E746-A750 deletion, H1975 were plated in 6-well plates, and 24 h later, treated with the compounds at various concentrations and a control (1% DMSO) for 24, 48 h. Growth medium was collected and cells were trypsined and collected correspondingly to the medium. Suspension (500 g) was centrifuged for 10 minutes. The cells were re-suspended in PBS to get a suspension and then the suspension (500 g) centrifuged for 10 min; this step was repeated twice. The cells were re-suspended in binding buffer, 5×10^5-1×10^6 cells/mL. PE-Annexin V (556421, BD Pharmingen) […] respectively. The cells were incubated for 15 min at RT in the dark. The samples were detected with FACS Calibur flow cytometer (Becton Dickinson).

For test [3], the system named is HCC827 (lung cancer cells, EGFR E746-A750 deletion). Put plainly: Cell proliferation by MTT, HCC827. In kind it is cell-based. Particulars: Homo sapiens, HCC827, read-out: HCC827 50% inhibitory concentration (IC50), 72 h.
The target in another test is EGFRL858R + T790M (Homo sapiens, UniProt P00533, L858R/T790M). In words: In vitro enzymatic activity assay (Z'-LYTE), EGFR L858R + T790M. In kind it is biochemical. Particulars: Z'-LYTE FRET peptide assay; read-out: EGFRL858R + T790M kinase activity (IC50). The procedure, abridged:
(§1)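 Z'-LYTE FRET coupled-enzyme format: kinase phosphorylates FRET peptide substrate, then after one hour a site-specific protease cleaves non-phosphorylated peptide. After another hour, excitation at 400 nm and emission read at 445 and 520 nm.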

The subject of test [4] is EGFR phosphorylation in H1975 Cell. Put plainly: Western Blot, cell signaling pathway in H1975 cell. It is filed as cell-based. Conditions: FIG. 30. The procedure: Conventional Western Blot (Immune blotting method) was used, wherein the method includes four steps: sample preparation, electrophoretic separation, film transfer of protein, and immuno hybridization and color display (protein detection). Sample preparation • 1. culturing cells or treating the cells with drugs; • 2. discarding mediums, washing the cells with 1×PBS twice to completely remove the mediums; • 3. adding 1×SDS sample buffer (6-well plate, 100 μl/w or 75 cm^2 plate, 500-1000 μl/bottle), scrapping the cells and transferring them to Ep tube; • 4. ultrasonic shearing DNA for 10-15 seconds to reduce the viscosity of the sample; • 5. boiling the sample for 5 minutes; • 6. centrifuging 12000 g sample for 5 minutes and taking the supernatant. […]
(Immunoblotting shows a protein as a band on a membrane.)

Test [5] concerns NCI-H820 (lung cancer cells). Put plainly: Cell proliferation by MTT, NCI-H820. Particulars: NCI-H820, read-out: NCI-H820 50% inhibitory concentration (IC50), 72 h. In kind it is cell-based.
The target of the next test is T1, EGFR T790M kinase (Homo sapiens, UniProt P00533, T790M).
T1 construct: purchased invitrogen PV4803
T1 sequence (P00533 25-1210 T790M): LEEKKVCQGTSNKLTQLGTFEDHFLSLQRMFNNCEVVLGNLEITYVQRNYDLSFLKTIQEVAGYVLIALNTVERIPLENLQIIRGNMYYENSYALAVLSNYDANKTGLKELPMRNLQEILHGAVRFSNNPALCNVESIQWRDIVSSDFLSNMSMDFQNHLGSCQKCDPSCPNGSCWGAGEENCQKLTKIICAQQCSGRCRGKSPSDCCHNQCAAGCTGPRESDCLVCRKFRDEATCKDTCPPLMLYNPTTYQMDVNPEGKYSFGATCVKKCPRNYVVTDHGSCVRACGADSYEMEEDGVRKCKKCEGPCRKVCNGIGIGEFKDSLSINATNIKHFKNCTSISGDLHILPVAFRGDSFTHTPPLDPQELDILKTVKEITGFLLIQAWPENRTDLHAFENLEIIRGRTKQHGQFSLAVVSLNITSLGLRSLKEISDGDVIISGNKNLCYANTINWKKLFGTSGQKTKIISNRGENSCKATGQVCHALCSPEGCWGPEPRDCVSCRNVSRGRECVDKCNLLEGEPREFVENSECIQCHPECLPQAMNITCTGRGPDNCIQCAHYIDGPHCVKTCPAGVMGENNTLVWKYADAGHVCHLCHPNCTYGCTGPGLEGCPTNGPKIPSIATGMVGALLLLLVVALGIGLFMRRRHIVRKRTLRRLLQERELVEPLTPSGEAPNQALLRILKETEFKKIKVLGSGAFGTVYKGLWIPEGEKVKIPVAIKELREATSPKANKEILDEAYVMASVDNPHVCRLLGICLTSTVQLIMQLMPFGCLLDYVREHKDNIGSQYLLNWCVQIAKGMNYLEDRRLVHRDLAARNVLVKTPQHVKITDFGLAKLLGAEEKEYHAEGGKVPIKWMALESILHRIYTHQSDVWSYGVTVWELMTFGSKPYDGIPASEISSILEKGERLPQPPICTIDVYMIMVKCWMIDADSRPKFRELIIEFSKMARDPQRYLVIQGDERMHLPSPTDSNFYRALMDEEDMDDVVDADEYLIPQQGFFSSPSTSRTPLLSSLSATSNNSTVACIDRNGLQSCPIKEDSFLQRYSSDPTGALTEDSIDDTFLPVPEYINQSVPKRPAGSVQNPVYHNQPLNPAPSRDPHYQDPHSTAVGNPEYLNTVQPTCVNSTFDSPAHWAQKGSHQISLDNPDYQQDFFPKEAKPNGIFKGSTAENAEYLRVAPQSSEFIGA
Put plainly: In vitro enzymatic activity assay (Z'-LYTE), EGFR T790M. In kind it is biochemical. Particulars: Z'-LYTE FRET peptide assay; read-out: EGFRT790M kinase activity (IC50). Summed up:
as §1

Test [6] deals with A431 (Human epidermal carcinoma, EGFR high expression). In words: Cell proliferation by MTT, A431. In kind it is cell-based. Particulars: A-431, read-out: A431 50% inhibitory concentration (IC50), 72 h.
In another test the target is EGFRL858R (Homo sapiens, UniProt P00533, L858R). In words: In vitro enzymatic activity assay (Z'-LYTE), EGFR L858R. It is filed as biochemical. Particulars: Z'-LYTE FRET peptide assay; read-out: EGFRL858R kinase activity (IC50). The procedure, abridged:
as §1

Test [7] deals with H1975 cell. Put plainly: Effect on cell cycle by PI. In kind it is cell-based. Particulars: PI staining, 24, 48 h; FIGS. 27, 28. Here is the method: Detecting the effect of the compounds on cell cycle by PI: 8×10^5 cells/well, NCI-H820, A431, HCC827, EGFR E746-A750 deletion, H1975 were plated in 6-well plates, and 24 h later, treated with the compounds at various concentrations and a control (1% DMSO) for 24, 48 h. Cells were trypsined, collected and then centrifuged for 10 minutes. The cells were re-suspended in PBS to get a suspension and then the suspension (500 g) centrifuged for 10 min; this step was repeated twice: firstly 300 uL pre-cooled PBS was added and mixed, then 700 uL pre-cooled (i.e. −20° C.) anhydrous ethanol was added and mixed, placed in −20° C. for 24 h. The mixture was 5000 rpm centrifuged for 2 min, washed by PBS twice, resuspended with 200 uL PBS (it needs to ensure the cell concentration as about […]), added RNase to achieve the final concentration of 50 ug/mL, and […] at 37° C. for 30 min. The mixture was added PI achieve the final concentration of 10 ug/mL, dyed in dark for 30 min, and then detected within 1 h.

A further test deals with EGFRWT (Homo sapiens, UniProt P00533). Put plainly: In vitro enzymatic activity assay (Z'-LYTE), wild type EGFR. In kind it is biochemical. Conditions: Z'-LYTE FRET peptide assay; read-out: EGFRWT kinase activity (IC50). The procedure, abridged:
as §1

A further test concerns the target EGFRL861Q (Homo sapiens, UniProt P00533, L861Q). Put plainly: In vitro enzymatic activity assay (Z'-LYTE), EGFR L861Q. In kind it is biochemical. Particulars: Z'-LYTE FRET peptide assay; read-out: EGFRL861Q kinase activity (IC50). The procedure, abridged: as §1

SMILES strings stand for the structures. Some results are limits rather than exact numbers.

EGFRWT, sequence (P00533 25-1210): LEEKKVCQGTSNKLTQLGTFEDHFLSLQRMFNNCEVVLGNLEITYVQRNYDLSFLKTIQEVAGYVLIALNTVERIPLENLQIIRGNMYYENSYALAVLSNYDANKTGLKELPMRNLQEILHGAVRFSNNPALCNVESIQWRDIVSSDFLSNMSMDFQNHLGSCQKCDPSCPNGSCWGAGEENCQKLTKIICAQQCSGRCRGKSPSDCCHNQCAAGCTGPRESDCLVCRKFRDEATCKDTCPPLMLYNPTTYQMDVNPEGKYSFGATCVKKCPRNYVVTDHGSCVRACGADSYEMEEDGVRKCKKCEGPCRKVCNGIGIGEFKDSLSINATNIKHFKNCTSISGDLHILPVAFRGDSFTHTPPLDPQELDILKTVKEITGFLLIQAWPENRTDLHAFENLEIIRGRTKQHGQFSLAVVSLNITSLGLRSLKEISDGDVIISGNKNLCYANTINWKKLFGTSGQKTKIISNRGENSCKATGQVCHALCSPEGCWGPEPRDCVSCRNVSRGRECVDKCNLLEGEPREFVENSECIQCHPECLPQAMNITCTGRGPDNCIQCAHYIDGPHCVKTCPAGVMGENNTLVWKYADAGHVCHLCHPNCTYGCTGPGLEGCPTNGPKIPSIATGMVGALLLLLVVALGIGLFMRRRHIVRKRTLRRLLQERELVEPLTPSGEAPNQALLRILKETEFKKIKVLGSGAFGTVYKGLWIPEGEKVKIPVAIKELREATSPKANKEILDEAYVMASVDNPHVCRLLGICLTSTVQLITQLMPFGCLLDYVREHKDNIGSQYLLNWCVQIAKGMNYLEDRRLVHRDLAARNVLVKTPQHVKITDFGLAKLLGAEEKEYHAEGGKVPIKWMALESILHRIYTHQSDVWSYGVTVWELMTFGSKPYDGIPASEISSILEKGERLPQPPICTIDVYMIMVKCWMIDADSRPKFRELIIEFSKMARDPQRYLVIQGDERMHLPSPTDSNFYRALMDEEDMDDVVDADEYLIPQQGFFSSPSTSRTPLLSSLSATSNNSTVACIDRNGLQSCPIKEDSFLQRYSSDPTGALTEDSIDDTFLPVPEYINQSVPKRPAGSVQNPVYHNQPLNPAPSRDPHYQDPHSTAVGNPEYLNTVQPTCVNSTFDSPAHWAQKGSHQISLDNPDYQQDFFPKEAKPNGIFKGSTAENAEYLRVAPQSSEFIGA
EGFRL858R, sequence (P00533 25-1210 L858R): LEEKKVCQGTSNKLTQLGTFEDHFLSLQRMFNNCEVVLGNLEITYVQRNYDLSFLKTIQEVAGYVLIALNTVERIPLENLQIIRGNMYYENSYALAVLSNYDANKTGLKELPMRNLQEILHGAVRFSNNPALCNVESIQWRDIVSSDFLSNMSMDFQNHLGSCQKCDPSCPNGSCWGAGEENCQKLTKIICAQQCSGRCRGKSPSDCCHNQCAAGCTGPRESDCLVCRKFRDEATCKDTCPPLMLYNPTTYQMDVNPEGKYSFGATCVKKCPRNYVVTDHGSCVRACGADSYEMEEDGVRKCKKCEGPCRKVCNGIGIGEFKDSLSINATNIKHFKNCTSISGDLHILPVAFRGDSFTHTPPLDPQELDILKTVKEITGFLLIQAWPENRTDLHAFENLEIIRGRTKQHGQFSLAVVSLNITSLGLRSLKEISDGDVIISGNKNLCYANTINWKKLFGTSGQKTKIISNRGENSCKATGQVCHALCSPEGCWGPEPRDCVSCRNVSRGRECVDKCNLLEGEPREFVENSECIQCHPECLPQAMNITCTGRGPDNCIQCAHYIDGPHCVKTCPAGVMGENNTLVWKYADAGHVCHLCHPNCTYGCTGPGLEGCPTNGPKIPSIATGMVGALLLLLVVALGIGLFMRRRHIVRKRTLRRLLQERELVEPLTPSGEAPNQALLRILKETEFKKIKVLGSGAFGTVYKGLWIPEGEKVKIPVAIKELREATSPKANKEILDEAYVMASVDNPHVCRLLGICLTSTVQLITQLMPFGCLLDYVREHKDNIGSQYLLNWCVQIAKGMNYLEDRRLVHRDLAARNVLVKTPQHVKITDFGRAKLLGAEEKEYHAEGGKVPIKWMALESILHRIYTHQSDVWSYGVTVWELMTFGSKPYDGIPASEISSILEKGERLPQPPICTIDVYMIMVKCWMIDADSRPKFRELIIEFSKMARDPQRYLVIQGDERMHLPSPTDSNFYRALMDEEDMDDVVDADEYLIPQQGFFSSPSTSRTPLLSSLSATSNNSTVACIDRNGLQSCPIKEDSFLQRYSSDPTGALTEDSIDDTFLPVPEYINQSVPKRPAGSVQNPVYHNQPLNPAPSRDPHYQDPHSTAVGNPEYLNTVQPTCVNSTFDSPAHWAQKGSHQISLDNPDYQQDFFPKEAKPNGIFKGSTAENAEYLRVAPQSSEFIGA
EGFRL861Q, sequence (P00533 25-1210 L861Q): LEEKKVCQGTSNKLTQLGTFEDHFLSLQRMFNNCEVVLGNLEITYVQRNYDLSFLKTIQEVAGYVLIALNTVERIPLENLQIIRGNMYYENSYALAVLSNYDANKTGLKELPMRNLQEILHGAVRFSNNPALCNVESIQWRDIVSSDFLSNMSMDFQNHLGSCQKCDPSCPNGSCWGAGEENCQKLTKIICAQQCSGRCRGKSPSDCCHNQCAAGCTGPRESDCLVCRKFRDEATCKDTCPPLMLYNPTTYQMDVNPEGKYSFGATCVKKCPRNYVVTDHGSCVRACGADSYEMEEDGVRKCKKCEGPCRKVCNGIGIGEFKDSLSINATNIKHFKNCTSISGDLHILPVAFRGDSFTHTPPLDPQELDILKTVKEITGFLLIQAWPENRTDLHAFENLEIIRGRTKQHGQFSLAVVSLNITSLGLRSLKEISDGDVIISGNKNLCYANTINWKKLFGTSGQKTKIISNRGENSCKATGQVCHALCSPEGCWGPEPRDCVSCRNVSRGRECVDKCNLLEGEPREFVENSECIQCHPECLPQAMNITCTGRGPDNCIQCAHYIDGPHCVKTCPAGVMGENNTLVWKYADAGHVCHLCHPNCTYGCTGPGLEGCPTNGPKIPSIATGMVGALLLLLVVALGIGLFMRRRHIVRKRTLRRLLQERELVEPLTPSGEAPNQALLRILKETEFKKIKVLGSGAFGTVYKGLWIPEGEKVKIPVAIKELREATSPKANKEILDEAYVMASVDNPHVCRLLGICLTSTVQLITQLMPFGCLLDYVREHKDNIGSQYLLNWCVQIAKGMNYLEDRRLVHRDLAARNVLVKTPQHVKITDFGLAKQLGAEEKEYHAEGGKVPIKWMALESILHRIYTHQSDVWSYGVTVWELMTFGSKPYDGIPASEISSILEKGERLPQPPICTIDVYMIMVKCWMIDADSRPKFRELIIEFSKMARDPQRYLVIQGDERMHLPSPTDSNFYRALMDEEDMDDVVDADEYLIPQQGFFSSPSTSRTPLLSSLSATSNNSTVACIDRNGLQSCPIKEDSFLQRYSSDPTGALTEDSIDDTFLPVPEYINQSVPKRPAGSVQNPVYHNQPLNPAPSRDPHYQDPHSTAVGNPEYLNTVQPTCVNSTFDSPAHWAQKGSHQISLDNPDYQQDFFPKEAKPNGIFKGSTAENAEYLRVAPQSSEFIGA

`C=CC(=O)Nc1cccc(N2C(=O)N(C)Cc3cnc(Nc4ccc(N5CCN(C)CC5)cc4OC)nc32)c1` [C-EGF06, N-(3-(7-(2-methoxy-4-(4-methylpiperazin-1-yl)phenylamino)-3-methyl-2-oxo-3,4-dihydropyrimido[4,5-d]pyrimidin-1(2H)-yl)phenyl)acrylamide]: the IC50 is 85 nM in test [1]; 52 nM in [3]; no more than 10 nM at EGFRL858R + T790M; greater than 100000 nM in test [5]; no more than 10 nM on EGFR T790M kinase; 2930 nM in test [6]. Further, the IC50 on EGFRL858R, on EGFRWT and on EGFRL861Q was no more than 10 nM each time. Also, the cell apoptosis result with H1975 cell [2] is “significantly induce”. Besides, the EGFR phosphorylation arrest entry in test [4] is “significantly induce EGFR phosphorylation arrest”. Further, the downstream pathway phosphorylation result in [4] is reported as “further block”. In the test on H1975 cell [7], the cell cycle arrest entry was “significantly induce”.
